From patent US20070004660A1, “Synergistic Modulation of Flt3 Kinase Using Alkylquinolines and Alkylquinazolines” (priority 2005, published 2007)
Structures can show the parent of a compound that is named as a salt.

biological target: T1, wild-type FLT3 receptor (Homo sapiens, UniProt P36888); assay: Cell-based FLT3 receptor ELISA (FLT ligand-induced phosphorylation in Baf3 FLT3 cells); conditions: 100 ng/mL Flt ligand, uncertainty ±20%
T1 construct: host or cells: Baf3 (murine B cell lymphoma line), stably transfected
T1 sequence (P36888 27-993): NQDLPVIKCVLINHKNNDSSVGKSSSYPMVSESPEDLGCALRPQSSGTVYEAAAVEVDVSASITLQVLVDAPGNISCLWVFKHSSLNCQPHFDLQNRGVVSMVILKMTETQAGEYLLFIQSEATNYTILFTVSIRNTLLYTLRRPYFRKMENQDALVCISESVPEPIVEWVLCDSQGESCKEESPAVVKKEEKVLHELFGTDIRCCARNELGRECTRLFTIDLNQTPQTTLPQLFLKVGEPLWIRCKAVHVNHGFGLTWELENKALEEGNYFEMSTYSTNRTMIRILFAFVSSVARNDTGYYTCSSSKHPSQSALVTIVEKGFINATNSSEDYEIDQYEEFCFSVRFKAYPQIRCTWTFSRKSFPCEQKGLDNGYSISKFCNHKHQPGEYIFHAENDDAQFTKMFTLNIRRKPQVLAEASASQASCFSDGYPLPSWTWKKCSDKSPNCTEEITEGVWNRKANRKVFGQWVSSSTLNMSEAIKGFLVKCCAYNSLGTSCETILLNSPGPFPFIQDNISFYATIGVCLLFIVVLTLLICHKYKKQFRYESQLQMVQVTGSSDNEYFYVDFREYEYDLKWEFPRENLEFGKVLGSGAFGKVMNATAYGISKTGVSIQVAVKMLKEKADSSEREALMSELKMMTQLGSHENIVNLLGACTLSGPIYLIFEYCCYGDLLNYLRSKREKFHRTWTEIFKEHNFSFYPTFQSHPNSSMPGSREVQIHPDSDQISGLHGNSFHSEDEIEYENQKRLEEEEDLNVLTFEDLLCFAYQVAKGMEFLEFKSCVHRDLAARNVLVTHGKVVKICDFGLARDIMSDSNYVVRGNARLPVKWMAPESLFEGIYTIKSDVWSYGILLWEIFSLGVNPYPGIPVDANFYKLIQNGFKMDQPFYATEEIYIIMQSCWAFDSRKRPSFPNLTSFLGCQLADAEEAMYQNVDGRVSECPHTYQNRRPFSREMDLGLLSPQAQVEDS
Summary of the method: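 Receptor phosphotyrosine measured by sandwich ELISA (anti-FLT3 capture, HRP anti-pTyr, luminescence) in FLT3-transfected murine Baf3 cells given 1 h compound pretreatment and 10 min 100 ng/mL FLT ligand after overnight low-serum starvation; triplicates, IC50 from nonlinear regression.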

Row | IC50 [nM] | SMILES
1 | 4 | O=C(Nc1ccc(N2CCCC2)cc1)N1CCC(c2ncnc3cc(N4CCNC4=O)ccc23)CC1 [Compound 178, 4-[7-(2-Oxo-imidazolidin-1-yl)-quinazolin-4-yl]-piperidine-1-carboxylic acid (4-pyrrolidin-1-yl-phenyl)-amide]
2 | 49 | O=C(Nc1ccc(N2CCCC2)cc1)N1CCC(c2ncnc3cc(N4CCCC4)ccc23)CC1 [Compound 179, 4-(7-Pyrrolidin-1-yl-quinazolin-4-yl)-piperidine-1-carboxylic acid (4-pyrrolidin-1-yl-phenyl)-amide]
3 | 10 | O=C(Nc1ccc(N2CCCC2)cc1)N1CCC(c2ncnc3cc(-n4ccnc4)ccc23)CC1 [Compound 180, 4-(7-Imidazol-1-yl-quinazolin-4-yl)-piperidine-1-carboxylic acid (4-pyrrolidin-1-yl-phenyl)-amide]
4 | 5 | O=C(Nc1ccc(N2CCCC2)cc1)N1CCC(c2ncnc3cc(N4CCOCC4)ccc23)CC1 [Compound 181, 4-(7-Morpholin-4-yl-quinazolin-4-yl)-piperidine-1-carboxylic acid (4-pyrrolidin-1-yl-phenyl)-amide]
5 | 24 | O=C(Nc1ccc(N2CCCC2)cc1)N1CCC(c2ncnc3cc(N4CCSCC4)ccc23)CC1 [Compound 182, 4-(7-Thiomorpholin-4-yl-quinazolin-4-yl)-piperidine-1-carboxylic acid (4-pyrrolidin-1-yl-phenyl)-amide]
6 | 31 | O=C1CN(c2ccc3c(C4CCN(C(=O)Nc5ccc(N6CCCC6)cc5)CC4)ncnc3c2)CCN1 [Compound 183, 4-[7-(3-Oxo-piperazin-1-yl)-quinazolin-4-yl]-piperidine-1-carboxylic acid (4-pyrrolidin-1-yl-phenyl)-amide]
7 | 98 | CN1CCN(c2ccc3c(C4CCN(C(=O)Nc5ccc(N6CCCC6)cc5)CC4)ncnc3c2)CC1=O [Compound 184, 4-[7-(4-Methyl-3-oxo-piperazin-1-yl)-quinazolin-4-yl]-piperidine-1-carboxylic acid (4-pyrrolidin-1-yl-phenyl)-amide]
8 | 1 | O=C(Nc1ccc(N2CCCC2)cc1)N1CCC(c2ncnc3cc(N4CCN(CCO)CC4)ccc23)CC1 [Compound 185, 4-{7-[4-(2-Hydroxy-ethyl)-piperazin-1-yl]-quinazolin-4-yl}-piperidine-1-carboxylic acid (4-pyrrolidin-1-yl-phenyl)-amide]
9 | 3 | COCCN1CCN(c2ccc3c(C4CCN(C(=O)Nc5ccc(N6CCCC6)cc5)CC4)ncnc3c2)CC1 [Compound 186, 4-{7-[4-(2-Methoxy-ethyl)-piperazin-1-yl]-quinazolin-4-yl}-piperidine-1-carboxylic acid (4-pyrrolidin-1-yl-phenyl)-amide]
10 | 12 | CCN1CCN(c2ccc3c(C4CCN(C(=O)Nc5ccc(N6CCCC6)cc5)CC4)ncnc3c2)CC1 [Compound 187, 4-[7-(4-Ethyl-piperazin-1-yl)-quinazolin-4-yl]-piperidine-1-carboxylic acid (4-pyrrolidin-1-yl-phenyl)-amide]
11 | 93 | O=C(Nc1ccc(N2CCCC2)cc1)N1CCC(c2ncnc3cc(OCC4CCOCC4)ccc23)CC1 [Compound 188, 4-[7-(Tetrahydro-pyran-4-ylmethoxy)-quinazolin-4-yl]-piperidine-1-carboxylic acid (4-pyrrolidin-1-yl-phenyl)-amide]
12 | 104 | O=C(Nc1ccc(N2CCCC2)cc1)N1CCC(c2ncnc3cc(OC4CCOCC4)ccc23)CC1 [Compound 189, 4-[7-(Tetrahydro-pyran-4-yloxy)-quinazolin-4-yl]-piperidine-1-carboxylic acid (4-pyrrolidin-1-yl-phenyl)-amide]
13 | 109 | O=C(Nc1ccc(N2CCCC2)cc1)N1CCC(c2ncnc3cc(O[C@H]4CCOC4)ccc23)CC1 [Compound 190, (S)-4-[7-(Tetrahydro-furan-3-yloxy)-quinazolin-4-yl]-piperidine-1-carboxylic acid (4-pyrrolidin-1-yl-phenyl)-amide]
14 | 144 | O=C(Nc1ccc(N2CCCC2)cc1)N1CCC(c2ncnc3cc(O[C@@H]4CCOC4)ccc23)CC1 [Compound 191, (R)-4-[7-(Tetrahydro-furan-3-yloxy)-quinazolin-4-yl]-piperidine-1-carboxylic acid (4-pyrrolidin-1-yl-phenyl)-amide]
15 | 1 | O=C(Nc1ccc(N2CCCC2)cc1)N1CCC(c2ncnc3cc(N4CCN(c5ccccn5)CC4)ccc23)CC1 [Compound 192, 4-[7-(4-Pyridin-2-yl-piperazin-1-yl)-quinazolin-4-yl]-piperidine-1-carboxylic acid (4-pyrrolidin-1-yl-phenyl)-amide]
16 | 3 | O=C(Nc1ccc(N2CCCC2)cc1)N1CCC(c2ncnc3cc(N4CCN(c5ncccn5)CC4)ccc23)CC1 [Compound 193, 4-[7-(4-Pyrimidin-2-yl-piperazin-1-yl)-quinazolin-4-yl]-piperidine-1-carboxylic acid (4-pyrrolidin-1-yl-phenyl)-amide]
17 | 11 | O=C(Nc1ccc(N2CCCC2)cc1)N1CCC(c2ncnc3cc(N4CCN(c5ccncc5)CC4)ccc23)CC1 [Compound 194, 4-[7-(4-Pyridin-4-yl-piperazin-1-yl)-quinazolin-4-yl]-piperidine-1-carboxylic acid (4-pyrrolidin-1-yl-phenyl)-amide]
18 | 81 | O=C(Nc1ccc(N2CCCC2)cc1)N1CCC(c2ncnc3cc(N4CCC(F)CC4)ccc23)CC1 [Compound 195, 4-[7-(4-Fluoro-piperidin-1-yl)-quinazolin-4-yl]-piperidine-1-carboxylic acid (4-pyrrolidin-1-yl-phenyl)-amide]
19 | 3 | O=C(Nc1ccc(N2CCOCC2)cc1)N1CCC(c2ncnc3cc(N4CCC(F)CC4)ccc23)CC1 [Compound 196, 4-[7-(4-Fluoro-piperidin-1-yl)-quinazolin-4-yl]-piperidine-1-carboxylic acid (4-morpholin-4-yl-phenyl)-amide]
20 | 78 | O=C(Nc1ccc(N2CCOCC2)cc1)N1CCC(c2ncnc3cc(N4CCNC4=O)ccc23)CC1 [Compound 197, 4-[7-(2-Oxo-imidazolidin-1-yl)-quinazolin-4-yl]-piperidine-1-carboxylic acid (4-morpholin-4-yl-phenyl)-amide]
21 | 40 | CCNC(=O)N1CCN(c2ccc3c(C4CCN(C(=O)Nc5ccc(N6CCCC6)cc5)CC4)ncnc3c2)CC1 [Compound 199, 4-{4-[1-(4-Pyrrolidin-1-yl-phenylcarbamoyl)-piperidin-4-yl]-quinazolin-7-yl}-piperazine-1-carboxylic acid ethylamide]
22 | 65 | O=C(CO)N1CCN(c2ccc3c(C4CCN(C(=O)Nc5ccc(N6CCCC6)cc5)CC4)ncnc3c2)CC1 [Compound 201, 4-{7-[4-(2-Hydroxy-acetyl)-piperazin-1-yl]-quinazolin-7-yl}-piperidine-1-carboxylic acid (4-pyrrolidin-1-yl-phenyl)-amide]
23 | 15 | CN1CCN(CCOc2ccc3c(C4CCN(C(=O)Nc5ccc(N6CCCC6)cc5)CC4)ncnc3c2)CC1=O [Compound 202, 4-{7-[2-(4-Methyl-3-oxo-piperazin-1-yl)-ethoxy]-quinazolin-4-yl}-piperidine-1-carboxylic acid (4-pyrrolidin-1-yl-phenyl)-amide]
24 | 6 | CN1CCN(CCCOc2cc3ncnc(C4CCN(C(=O)Nc5ccc(N6CCOCC6)cc5)CC4)c3cc2F)CC1 [Compound 205, 4-{6-Fluoro-7-[3-(4-methyl-piperazin-1-yl)-propoxy]-quinazolin-4-yl}-piperidine-1-carboxylic acid (4-morpholin-4-yl-phenyl)-amide]
25 | 17 | COc1cc2ncnc(C3CCN(C(=O)Nc4ccc(OC(C)C)cc4)CC3)c2cc1OC [Example 1, 4-(6,7-Dimethoxy-quinazolin-4-yl)-piperidine-1-carboxylic acid (4-isopropoxy-phenyl)-amide hydrochloride]
26 | 55 | CC(C)Oc1ccc(NC(=O)N2CCC(c3ncnc4ccc(C#CCN5CCOCC5)cc34)CC2)cc1 [Example 15, 4-[6-(3-Morpholin-4-yl-prop-1-ynyl)-quinazolin-4-yl]-piperidine-1-carboxylic acid (4-isopropoxy-phenyl)-amide]
27 | 336 | CC(C)c1ccc(NC(=O)CN2CCC(c3ncnc4ccccc34)CC2)cc1 [Example 16, N-(4-Isopropyl-phenyl)-2-(4-quinazolin-4-yl-piperidin-1-yl)-acetamide]

Row | SMILES | IC50 [nM]
28 | COc1cc2ncnc(C3CCN(C(=O)Nc4ccc(OC5CCC5)nc4)CC3)c2cc1OC [Example 17, 4-(6,7-Dimethoxy-quinazolin-4-yl)-piperidine-1-carboxylic acid (6-cyclobutoxy-pyridin-3-yl)-amide] | 292
